For one data set, the system named is bradykinin induced pain. Description: bradykinin induced pain test in rats (s.c.). Type of data set: in vivo, rat. How it is done: For example, the MED of both, the test substance 32-527 and morphine, is 0,56 mg/kg in the so-called step-irritation test in the rhesus monkey upon s.c. administration. Upon s.c. administration, the ED50 of the two substances for inhibiting the bradykinin induced pain in rats are as follows: […]

The test system of data set [1] is rhesus monkey. The experiment in a line: step-irritation test in the rhesus monkey. Type of data set: in vivo.
Data set [2] is described as follows: inhibition of intestinal motility in mice. Conditions: mouse, in vivo, po, read-out: intestinal motility inhibiting ED50.
The subject of data set [3] is rhesus monkey. The experiment in a line: self-administration test (addiction) in the rhesus monkey. The data set is classed as in vivo. As to conditions: contrary to morphine. The procedure:
test substance No. 32-527 < 5,6 mg/kg and morphine 3,6 mg/kg.

The nature of the next data set: acute toxicity. Type of data set: in vivo. As to conditions: compared with propoxyphene or profadol.
Data set [4] relates to mice, rats and rhesus monkeys. The experiment in a line: analgesic activity in mice, rats and rhesus monkeys. The data set is classed as in vivo.

As to `CN1CC[C@]23c4c5ccc(O)c4O[C@H]2[C@@H](O)C=C[C@H]3[C@H]1C5` [morphine, reference compound], in the data set on bradykinin induced pain, the “ED50 for inhibiting the bradykinin induced pain” value is recorded as 3,6 mg/kg. In addition, the minimal effective dose with rhesus monkey [1] (Macaca mulatta, sc, read-out: MED) stood at 0.56 mg/kg. The ED50 in data set [2] is 39 mg/kg.

For `COC1OC2OC3(C)C(NCCc4ccccc4Cl)CC(C2C)C13.Cl` (stereo not drawn) [test substance No. 32-527, 4 α-(o-chlorophenethylamino)-3,10-dimethyl-8-methoxy-2,9-dioxatricyclo[4,3,1,0^3,7]decane hydrochloride], in the data set with bradykinin induced pain, the “ED50 for inhibiting the bradykinin induced pain” value is < 5,6 mg/kg. Further, the MED in the data set with rhesus monkey [1] (step-irritation test, rhesus monkey, s.c.) is listed as 0,56 mg/kg. In addition, the “addiction syndroms in the self-administration test” value with rhesus monkey [3] was “practically no addiction syndroms are observed”. In addition, the acute toxicity result in the data set “acute toxicity” is “similarly low toxicity as that of propoxyphene or profadol”. For the same compound, in data set [4] (enteral and parenteral), the “analgesic activity compared with morphine” value is “of about the same order as that of morphine”. In data set [4] (enteral and parenteral administration), the analgesic activity entry is recorded as “exhibits analgesic activities”.

The values above are taken from patent US4141988A, “2,9-Dioxatricyclo[4,3,1,0^3,7 ]decane derivatives, processes for their preparation and pharmaceutical compositions thereof” (Kali-Chemie Pharma GmbH, priority 1977, dated 1979).
